In patent US7807411B2, “Genetically encoded fluorescent coumarin amino acids” (The Scripps Research Institute, priority 2006, dated 2010):

Tests used:
[1] = Absorption and emission spectra of the coumarin amino acid; type: physicochemical; conditions: phenolate form, pH 7.4, 100 mM sodium phosphate buffer
Procedure: FIG. 2 provides absorption and emission spectra of L-(7-hydroxycoumarin-4-yl)ethylglycine. Both spectra were recorded at pH 7.4, 100 mM sodium phosphate buffer. At this pH, L-(7-hydroxycoumarin-4-yl)ethylglycine is present in both phenol and phenolate forms (in approximately a 2:1 ratio). The phenolate form has an extinction coefficient of 17000 at […] and a quantum yield of 0.63.

[2] = pH sensitivity of the absorption spectrum (pKa determination); type: physicochemical; conditions: 60 μM in 100 mM sodium phosphate buffer, calculated from absorbance at 360 nm versus pH
Procedure: FIG. 7 provides an absorption spectrum of 60 μM coumarinyl amino acid L-(7-hydroxycoumarin-4-yl)ethylglycine in 100 mM sodium phosphate buffer.
The absorption spectrum of 60 μM coumarinyl amino acid 7-hydroxycoumarin-ethylglycine was measured in 100 mM sodium phosphate buffer. The absorbance of 360 nm increased while pH increased.

[3] = test system: amber codon in the chloramphenicol acetyl transferase (CAT) gene; test: Chloramphenicol survival of synthetase clones (amber suppression in CAT gene); type: cell-based, E. coli; conditions: 60 hours at 37° C., GMML-agar
Procedure: Subsequently, this library was subjected to rounds of both positive and negative selections. In the positive selection, cell survival is dependent on the suppression of an amber codon introduced at a permissive site in the chloramphenicol acetyl transferase (CAT) gene when cells co-transformed with pBK-lib and MjtRNA^TyrCUA are grown in the presence of 1 mM unnatural amino acid (UAA) and chloramphenicol (Xie and Schultz, Methods (2005) 36:227-238). Positively selected clones are then transformed into cells containing MjtRNA^TyrCUA and a gene encoding the toxic barnase protein with three amber mutations introduced at permissive sites. These cells are grown in the absence of UAA to remove any clones that utilize endogenous amino acids (negative selection). These positive and negative selection are described in detail below.
Positive Selection—E. coli DH10B harboring the pREP(2)/YC plasmid was used as the host strain for the positive selection. Cells were transformed with the pBK-lib5 library, recovered in SOC for 1 hour, washed twice with glycerol minimal media with leucine (GMML) before plating on GMML-agar plates supplemented with kanamycin, chloramphenicol, tetracycline and 7-hydroxycoumarin-ethylglycine at 50 μg/mL, 60 μg/mL, 15 μg/mL and 1 mM respectively. […]

Molecule | extinction coefficient ([1]; at 360 nm) [M⁻¹ cm⁻¹] | quantum yield [1] | pKa [2] | chloramphenicol concentration at which the clone survives ([3]; in the absence of 7-hydroxycoumarin-ethylglycine) [µg/mL] | chloramphenicol concentration at which the clone survives ([3]; in the presence of 1 mM 7-hydroxycoumarin-ethylglycine) [µg/mL]
N[C@@H](CCc1cc(=O)oc2cc(O)ccc12)C(=O)O [L-(7-hydroxycoumarin-4-yl)ethylglycine] | 17000 | 0.63 | 7.8 | – | –
CouRS-D8 (protein, L-(7-hydroxycoumarin-4-yl) ethylglycine aminoacyl-tRNA synthetase) MDEFEMIKRNTSEIISEEELREVLKKDEKSAEIGFEPSGKIHLGHYLQIKKMIDLQNAGFDIIIHLGDLGAYLNQKGELDEIRKIGDYNKKVFEAMGLKAKYVYGSEYHLDKDYTLNVYRLALKTTLKRARRSMELIAREDENPKVAEVIYPIMQVNGIHYGGVDVAVGGMEQRKIHMLARELLPKKVVCIHNPVLTGLDGEGKMSSSKGNFIAVDDSPEEIRAKIKKAYCPAGVVEGNPIMEIAKYFLEYPLTIKRPEKFGGDLTVNSYEELESLFKNKELHPMDLKNAVAEELIKILEPIRKRL | – | – | – | 20 | 100
